Test results published in publication PMC10289903 (Investigational New Drugs, 2023).
Read-outs that look alike come from different tables or passages of the source.

Tested on: patients with locally advanced or metastatic solid tumors
Source text: This was a Phase Ib, multicenter, open-label, dose-finding clinical trial (NCT02610075). […] Three types of treatment schedules were investigated: cohorts bid 1, bid 2, qd 1.1, qd 2.1 and qd 3.1 received bid or qd treatment on a 5/9 schedule (5 days on treatment, followed by 9 days off) on a 14-day cycle. Cohorts qd 1.2, qd 2.2, and qd 3.2 received treatment on a 5/2 schedule (5 days on followed by 2 days off for 2 of 3 weeks) in a 21-day cycle. Cohorts qd 2.3 and qd 3.3 received treatment on a weekly 5/2 schedule in a 21-day cycle (Table 1). The highest dose level(s) at which less than one-third of evaluable patients (none of 3 patients or 1 of 6 patients) experienced a dose-limiting toxicity (DLT) was declared the MTD.
The per protocol analysis set was defined as a subset of the full analysis set, excluding subjects having an important protocol deviation, to be used for analyses of efficacy endpoints if appropriate.

C=CCn1c(=O)c2cnc(Nc3ccc(N4CCN(C)CC4)cc3)nc2n1-c1cccc(C(C)(C)O)n1 [adavosertib, Adavosertib]
4 (100) n (%): Any AE (treatment-emergent) (qd 2.1: 250 mg qd 5/9 (n=4))
2 (50.0) n (%): Any grade ≥ 3 AE (qd 2.1: 250 mg qd 5/9 (n=4)) | Any treatment-related AE (qd 2.1: 250 mg qd 5/9 (n=4)) | Cough (treatment-emergent AE) (qd 2.1: 250 mg qd 5/9 (n=4))
1 (16.7) n (%): Abdominal pain (treatment-related AE) (qd 1.2: 200 mg qd 5/2 (n=6)) | Alanine aminotransferase increased (treatment-emergent AE) (qd 1.2: 200 mg qd 5/2 (n=6)) | Back pain (treatment-emergent AE) (qd 1.2: 200 mg qd 5/2 (n=6)) | Constipation (treatment-related AE) (qd 1.2: 200 mg qd 5/2 (n=6)) | Cough (treatment-emergent AE) (qd 1.2: 200 mg qd 5/2 (n=6)) | Decreased appetite (treatment-emergent AE) (qd 1.2: 200 mg qd 5/2 (n=6)) | Decreased appetite (treatment-related AE) (qd 1.2: 200 mg qd 5/2 (n=6)) | Dehydration (treatment-related AE) (qd 1.2: 200 mg qd 5/2 (n=6)) | Dyspepsia (treatment-emergent AE) (qd 1.2: 200 mg qd 5/2 (n=6)) | Dyspepsia (treatment-related AE) (qd 1.2: 200 mg qd 5/2 (n=6)) | Dyspnea (treatment-emergent AE) (qd 1.2: 200 mg qd 5/2 (n=6)) | Fall (treatment-emergent AE) (qd 1.2: 200 mg qd 5/2 (n=6)) | Fatigue (treatment-emergent AE) (qd 1.2: 200 mg qd 5/2 (n=6)) | Fatigue (treatment-related AE) (qd 1.2: 200 mg qd 5/2 (n=6)) | Insomnia (treatment-emergent AE) (qd 1.2: 200 mg qd 5/2 (n=6)) | Muscle spasms (treatment-emergent AE) (qd 1.2: 200 mg qd 5/2 (n=6)) | Neutropenia (treatment-emergent AE) (qd 1.2: 200 mg qd 5/2 (n=6)) | Pyrexia (treatment-emergent AE) (qd 1.2: 200 mg qd 5/2 (n=6)) | Urinary tract infection (treatment-emergent AE) (qd 1.2: 200 mg qd 5/2 (n=6))
3 (50.0) n (%): Any grade ≥ 3 AE (qd 1.2: 200 mg qd 5/2 (n=6)) | Diarrhea (treatment-emergent AE) (qd 1.2: 200 mg qd 5/2 (n=6)) | Edema peripheral (treatment-emergent AE) (qd 1.2: 200 mg qd 5/2 (n=6)) | Myalgia (treatment-emergent AE) (qd 1.2: 200 mg qd 5/2 (n=6)) | Myalgia (treatment-related AE) (qd 1.2: 200 mg qd 5/2 (n=6)) | Vomiting (treatment-emergent AE) (qd 1.2: 200 mg qd 5/2 (n=6)) | Vomiting (treatment-related AE) (qd 1.2: 200 mg qd 5/2 (n=6))
1 (20.0) n (%): Dizziness (treatment-emergent AE) (qd 1.1: 200 mg qd 5/9 (n=5)) | Dyspepsia (treatment-emergent AE) (qd 1.1: 200 mg qd 5/9 (n=5)) | Fatigue (treatment-related AE) (qd 1.1: 200 mg qd 5/9 (n=5)) | Headache (treatment-emergent AE) (qd 1.1: 200 mg qd 5/9 (n=5)) | Myalgia (treatment-emergent AE) (qd 1.1: 200 mg qd 5/9 (n=5)) | Myalgia (treatment-related AE) (qd 1.1: 200 mg qd 5/9 (n=5)) | Nausea (treatment-emergent AE) (qd 1.1: 200 mg qd 5/9 (n=5)) | Nausea (treatment-related AE) (qd 1.1: 200 mg qd 5/9 (n=5)) | Neutropenia (treatment-emergent AE) (qd 1.1: 200 mg qd 5/9 (n=5)) | Neutropenia (treatment-related AE) (qd 1.1: 200 mg qd 5/9 (n=5)) | Pyrexia (treatment-emergent AE) (qd 1.1: 200 mg qd 5/9 (n=5)) | Rash (treatment-emergent AE) (qd 1.1: 200 mg qd 5/9 (n=5)) | Urinary tract infection (treatment-emergent AE) (qd 1.1: 200 mg qd 5/9 (n=5))
4 (66.7) n (%): Nausea (treatment-emergent AE) (qd 1.2: 200 mg qd 5/2 (n=6)) | Nausea (treatment-related AE) (qd 1.2: 200 mg qd 5/2 (n=6))
0 n (%): Dyspepsia (treatment-related AE) (qd 1.1: 200 mg qd 5/9 (n=5)) | Dyspnea (treatment-emergent AE) (qd 1.1: 200 mg qd 5/9 (n=5)) | Edema peripheral (treatment-emergent AE) (qd 1.1: 200 mg qd 5/9 (n=5)) | Fall (treatment-emergent AE) (qd 1.1: 200 mg qd 5/9 (n=5)) | Hypokalemia (treatment-emergent AE) (qd 1.1: 200 mg qd 5/9 (n=5)) | Insomnia (treatment-emergent AE) (qd 1.1: 200 mg qd 5/9 (n=5)) | Muscle spasms (treatment-emergent AE) (qd 1.1: 200 mg qd 5/9 (n=5)) | Pneumonia (treatment-emergent AE) (qd 1.1: 200 mg qd 5/9 (n=5)) | Thrombocytopenia (treatment-emergent AE) (qd 1.1: 200 mg qd 5/9 (n=5)) | Thrombocytopenia (treatment-related AE) (qd 1.1: 200 mg qd 5/9 (n=5)) | Vomiting (treatment-emergent AE) (qd 1.1: 200 mg qd 5/9 (n=5)) | Vomiting (treatment-related AE) (qd 1.1: 200 mg qd 5/9 (n=5)) | Asthenia (treatment-emergent AE) (qd 1.2: 200 mg qd 5/2 (n=6)) | Asthenia (treatment-related AE) (qd 1.2: 200 mg qd 5/2 (n=6)) | Hypokalemia (treatment-emergent AE) (qd 1.2: 200 mg qd 5/2 (n=6)) | Neutropenia (treatment-related AE) (qd 1.2: 200 mg qd 5/2 (n=6)) | Pneumonia (treatment-emergent AE) (qd 1.2: 200 mg qd 5/2 (n=6)) | Rash (treatment-emergent AE) (qd 1.2: 200 mg qd 5/2 (n=6)) | Thrombocytopenia (treatment-emergent AE) (qd 1.2: 200 mg qd 5/2 (n=6)) | Thrombocytopenia (treatment-related AE) (qd 1.2: 200 mg qd 5/2 (n=6)) | Alanine aminotransferase increased (treatment-emergent AE) (qd 2.1: 250 mg qd 5/9 (n=4)) | Anemia (treatment-related AE) (qd 2.1: 250 mg qd 5/9 (n=4)) | Any treatment-related grade ≥ 3 AE (qd 2.1: 250 mg qd 5/9 (n=4)) | Asthenia (treatment-emergent AE) (qd 2.1: 250 mg qd 5/9 (n=4)) | Asthenia (treatment-related AE) (qd 2.1: 250 mg qd 5/9 (n=4)) | Back pain (treatment-emergent AE) (qd 2.1: 250 mg qd 5/9 (n=4)) | Constipation (treatment-emergent AE) (qd 2.1: 250 mg qd 5/9 (n=4)) | Constipation (treatment-related AE) (qd 2.1: 250 mg qd 5/9 (n=4)) | Decreased appetite (treatment-emergent AE) (qd 2.1: 250 mg qd 5/9 (n=4)) | Decreased appetite (treatment-related AE) (qd 2.1: 250 mg qd 5/9 (n=4)) | Dehydration (treatment-emergent AE) (qd 2.1: 250 mg qd 5/9 (n=4)) | Dehydration (treatment-related AE) (qd 2.1: 250 mg qd 5/9 (n=4)) | Dizziness (treatment-emergent AE) (qd 2.1: 250 mg qd 5/9 (n=4)) | Dyspepsia (treatment-emergent AE) (qd 2.1: 250 mg qd 5/9 (n=4)) | Dyspepsia (treatment-related AE) (qd 2.1: 250 mg qd 5/9 (n=4)) | Dyspnea (treatment-emergent AE) (qd 2.1: 250 mg qd 5/9 (n=4)) | Fall (treatment-emergent AE) (qd 2.1: 250 mg qd 5/9 (n=4)) | Fatigue (treatment-emergent AE) (qd 2.1: 250 mg qd 5/9 (n=4)) | Fatigue (treatment-related AE) (qd 2.1: 250 mg qd 5/9 (n=4)) | Headache (treatment-emergent AE) (qd 2.1: 250 mg qd 5/9 (n=4)) | Hypokalemia (treatment-emergent AE) (qd 2.1: 250 mg qd 5/9 (n=4)) | Insomnia (treatment-emergent AE) (qd 2.1: 250 mg qd 5/9 (n=4)) | Muscle spasms (treatment-emergent AE) (qd 2.1: 250 mg qd 5/9 (n=4)) | Myalgia (treatment-emergent AE) (qd 2.1: 250 mg qd 5/9 (n=4)) | Myalgia (treatment-related AE) (qd 2.1: 250 mg qd 5/9 (n=4)) | Nausea (treatment-emergent AE) (qd 2.1: 250 mg qd 5/9 (n=4)) | Nausea (treatment-related AE) (qd 2.1: 250 mg qd 5/9 (n=4)) | Neutropenia (treatment-emergent AE) (qd 2.1: 250 mg qd 5/9 (n=4)) | Neutropenia (treatment-related AE) (qd 2.1: 250 mg qd 5/9 (n=4)) | Pneumonia (treatment-emergent AE) (qd 2.1: 250 mg qd 5/9 (n=4)) | Rash (treatment-emergent AE) (qd 2.1: 250 mg qd 5/9 (n=4)) | Thrombocytopenia (treatment-emergent AE) (qd 2.1: 250 mg qd 5/9 (n=4))
1 (25.0) n (%): Abdominal pain (treatment-emergent AE) (qd 2.1: 250 mg qd 5/9 (n=4)) | Abdominal pain (treatment-related AE) (qd 2.1: 250 mg qd 5/9 (n=4)) | Anemia (treatment-emergent AE) (qd 2.1: 250 mg qd 5/9 (n=4)) | Diarrhea (treatment-emergent AE) (qd 2.1: 250 mg qd 5/9 (n=4)) | Diarrhea (treatment-related AE) (qd 2.1: 250 mg qd 5/9 (n=4)) | Edema peripheral (treatment-emergent AE) (qd 2.1: 250 mg qd 5/9 (n=4)) | Pyrexia (treatment-emergent AE) (qd 2.1: 250 mg qd 5/9 (n=4))
2 (40.0) n (%): Fatigue (treatment-emergent AE) (qd 1.1: 200 mg qd 5/9 (n=5))
6 (100) n (%): Any AE (treatment-emergent) (qd 1.2: 200 mg qd 5/2 (n=6)) | Any treatment-related AE (qd 1.2: 200 mg qd 5/2 (n=6))
2 (33.3) n (%): Abdominal pain (treatment-emergent AE) (qd 1.2: 200 mg qd 5/2 (n=6)) | Anemia (treatment-emergent AE) (qd 1.2: 200 mg qd 5/2 (n=6)) | Anemia (treatment-related AE) (qd 1.2: 200 mg qd 5/2 (n=6)) | Any treatment-related grade ≥ 3 AE (qd 1.2: 200 mg qd 5/2 (n=6)) | Constipation (treatment-emergent AE) (qd 1.2: 200 mg qd 5/2 (n=6)) | Dehydration (treatment-emergent AE) (qd 1.2: 200 mg qd 5/2 (n=6)) | Diarrhea (treatment-related AE) (qd 1.2: 200 mg qd 5/2 (n=6)) | Dizziness (treatment-emergent AE) (qd 1.2: 200 mg qd 5/2 (n=6)) | Headache (treatment-emergent AE) (qd 1.2: 200 mg qd 5/2 (n=6))
